Source: publication PMC9186362, “Design and biological evaluation of substituted 5,7-dihydro-6H-indolo[2,3-c]quinolin-6-one as novel selective Haspin inhibitors” (Journal of Enzyme Inhibition and Medicinal Chemistry, 2022)
pIC50: −log10 of the molar value.

Experiments:
[1] = biological target: RnDYRK1A (Rattus norvegicus, UniProt Q63470); experiment: ADP-Glo kinase assay; format: biochemical, Rattus norvegicus (Rn); conditions: for remaining activity: mean n = 2, % of maximum activity of DMSO control, read-out: % Residual activity at 1 μM DYRK1A; for Selectivity index DYRK/Haspin: IC50 DYRK1A/IC50 Haspin; for pIC50: dose-response curve, each point in duplicate, read-out: Kinase inhibition (IC50) DYRK1A
Experimental: (§1) Kinase activities were determined using the ADP-Glo methodology (ADP-Glo Kinase Assay; Promega) according to the assay described by Nguyen et al.[32] except for MmCLK1. The later was assayed in the following buffer: 10 mM MgCl2, 1 mM EGTA, 1 mM DTT, 25 mM Tris-HCl pH 7.5, 50 µg/ml heparin, 0.15 mg/ml BSA, with 0.027 µg/µl of the following peptide: GRSRSRSRSRSR as substrate.

[2] = biological target: HsGSK3β (Homo sapiens, UniProt P49841); experiment: ADP-Glo kinase assay; format: biochemical, Homo sapiens (Hs); conditions: mean n = 2, % of maximum activity of DMSO control, read-out: % Residual activity at 1 μM GSK3β
Experimental: as §1

[3] = biological target: HsCdk9/Cyc E (Homo sapiens, UniProt P50750); experiment: ADP-Glo kinase assay; format: biochemical, Homo sapiens (Hs); conditions: mean n = 2, % of maximum activity of DMSO control, read-out: % Residual activity at 1 μM CDK9
Experimental: as §1

[4] = biological target: T1, HsHaspin (Homo sapiens, UniProt Q8TF76); experiment: ADP-Glo kinase assay; format: biochemical, Homo sapiens (Hs); conditions: for remaining activity at 1 µM: mean n = 2, % of maximum activity of DMSO control, read-out: % Residual activity at 1 μM Haspin; for pIC50: dose-response curve, each point in duplicate, read-out: Kinase inhibition (IC50) Haspin
T1 sequence (Q8TF76 1-798): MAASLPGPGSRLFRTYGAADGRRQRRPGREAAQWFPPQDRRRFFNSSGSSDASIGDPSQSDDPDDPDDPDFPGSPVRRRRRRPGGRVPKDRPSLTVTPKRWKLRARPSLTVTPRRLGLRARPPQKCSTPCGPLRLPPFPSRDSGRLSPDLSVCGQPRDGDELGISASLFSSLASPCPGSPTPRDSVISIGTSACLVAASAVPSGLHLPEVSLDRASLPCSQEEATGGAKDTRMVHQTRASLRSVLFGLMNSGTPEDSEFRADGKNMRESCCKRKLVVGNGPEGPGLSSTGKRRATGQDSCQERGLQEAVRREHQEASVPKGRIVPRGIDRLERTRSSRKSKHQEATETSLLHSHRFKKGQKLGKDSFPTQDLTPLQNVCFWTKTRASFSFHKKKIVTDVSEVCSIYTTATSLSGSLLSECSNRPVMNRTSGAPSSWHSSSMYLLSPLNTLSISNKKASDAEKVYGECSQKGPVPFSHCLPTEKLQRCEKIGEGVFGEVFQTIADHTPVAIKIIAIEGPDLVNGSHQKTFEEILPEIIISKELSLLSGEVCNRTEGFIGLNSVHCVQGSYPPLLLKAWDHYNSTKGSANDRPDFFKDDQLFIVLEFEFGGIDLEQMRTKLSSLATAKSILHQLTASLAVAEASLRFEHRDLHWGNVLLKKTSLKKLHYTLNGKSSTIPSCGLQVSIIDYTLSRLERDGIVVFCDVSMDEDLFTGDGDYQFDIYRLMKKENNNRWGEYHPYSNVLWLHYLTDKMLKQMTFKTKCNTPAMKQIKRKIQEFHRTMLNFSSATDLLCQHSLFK
Experimental: as §1

[5] = biological target: HsPIM1 (Homo sapiens, UniProt P11309); experiment: ADP-Glo kinase assay; format: biochemical, Homo sapiens (Hs); conditions: mean n = 2, % of maximum activity of DMSO control, read-out: % Residual activity at 1 μM PIM1
Experimental: as §1

[6] = biological target: HsCdk2/Cyc A (Homo sapiens, UniProt P24941); experiment: ADP-Glo kinase assay; format: biochemical, Homo sapiens (Hs); conditions: mean n = 2, % of maximum activity of DMSO control, read-out: % Residual activity at 1 μM CDK2
Experimental: as §1

[7] = biological target: HsCdk5/p25 (Homo sapiens, UniProt Q00535); experiment: ADP-Glo kinase assay; format: biochemical, Homo sapiens (Hs); conditions: mean n = 2, % of maximum activity of DMSO control, read-out: % Residual activity at 1 μM CDK5
Experimental: as §1

[8] = biological target: MmCLK1 (Mus musculus, UniProt P22518); experiment: ADP-Glo kinase assay; format: biochemical, Mus musculus (Mm); conditions: for remaining activity at 1 µM: mean n = 2, % of maximum activity of DMSO control, read-out: % Residual activity at 1 μM CLK1; for Selectivity index CLK1/Haspin: IC50 CLK1/IC50 Haspin; for pIC50: dose-response curve, each point in duplicate, read-out: Kinase inhibition (IC50) CLK1
Experimental: as §1

Sequence of MmCLK1 (P22518 whole entry): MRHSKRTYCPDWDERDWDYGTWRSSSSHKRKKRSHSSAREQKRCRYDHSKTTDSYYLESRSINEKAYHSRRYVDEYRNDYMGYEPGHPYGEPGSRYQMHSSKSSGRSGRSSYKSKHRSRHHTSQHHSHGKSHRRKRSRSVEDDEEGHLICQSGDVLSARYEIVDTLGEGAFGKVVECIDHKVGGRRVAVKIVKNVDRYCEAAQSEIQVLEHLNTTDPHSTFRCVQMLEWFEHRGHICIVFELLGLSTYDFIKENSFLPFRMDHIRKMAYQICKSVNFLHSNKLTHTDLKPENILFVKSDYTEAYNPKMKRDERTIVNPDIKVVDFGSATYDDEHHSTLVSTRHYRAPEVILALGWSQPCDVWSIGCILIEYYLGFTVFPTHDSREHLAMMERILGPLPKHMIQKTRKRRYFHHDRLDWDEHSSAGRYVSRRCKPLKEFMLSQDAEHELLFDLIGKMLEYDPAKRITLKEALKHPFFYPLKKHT
Sequence of HsCdk9/Cyc E (P50750 whole entry): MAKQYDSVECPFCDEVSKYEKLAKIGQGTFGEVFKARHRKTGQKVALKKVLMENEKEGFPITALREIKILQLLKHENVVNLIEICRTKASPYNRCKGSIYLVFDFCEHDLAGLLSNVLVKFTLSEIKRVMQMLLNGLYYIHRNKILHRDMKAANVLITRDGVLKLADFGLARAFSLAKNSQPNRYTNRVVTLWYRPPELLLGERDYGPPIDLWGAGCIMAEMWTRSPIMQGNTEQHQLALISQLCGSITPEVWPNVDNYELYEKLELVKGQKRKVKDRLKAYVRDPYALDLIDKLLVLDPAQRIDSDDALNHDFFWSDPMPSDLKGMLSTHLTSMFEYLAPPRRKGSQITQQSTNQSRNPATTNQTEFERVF
Sequence of HsCdk9/Cyc E (O60563 whole entry partner): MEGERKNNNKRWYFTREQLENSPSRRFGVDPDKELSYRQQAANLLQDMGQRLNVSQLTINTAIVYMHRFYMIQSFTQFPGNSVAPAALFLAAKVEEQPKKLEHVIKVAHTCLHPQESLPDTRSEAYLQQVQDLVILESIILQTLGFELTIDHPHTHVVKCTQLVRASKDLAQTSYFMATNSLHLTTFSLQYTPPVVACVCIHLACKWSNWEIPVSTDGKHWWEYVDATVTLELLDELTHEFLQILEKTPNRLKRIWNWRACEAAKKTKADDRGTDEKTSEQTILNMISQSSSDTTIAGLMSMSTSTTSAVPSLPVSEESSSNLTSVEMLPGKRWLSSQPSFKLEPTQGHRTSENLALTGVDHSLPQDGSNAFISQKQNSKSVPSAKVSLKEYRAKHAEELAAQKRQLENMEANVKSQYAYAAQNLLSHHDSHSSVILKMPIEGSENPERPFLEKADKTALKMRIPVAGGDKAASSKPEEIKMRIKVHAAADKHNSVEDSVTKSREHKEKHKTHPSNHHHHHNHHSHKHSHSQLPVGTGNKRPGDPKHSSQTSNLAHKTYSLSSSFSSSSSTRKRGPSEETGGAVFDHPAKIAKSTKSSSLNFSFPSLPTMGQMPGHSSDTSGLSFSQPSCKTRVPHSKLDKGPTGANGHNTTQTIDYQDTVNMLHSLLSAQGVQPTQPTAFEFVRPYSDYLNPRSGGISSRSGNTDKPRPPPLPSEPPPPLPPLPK
Sequence of HsPIM1 (P11309 whole entry): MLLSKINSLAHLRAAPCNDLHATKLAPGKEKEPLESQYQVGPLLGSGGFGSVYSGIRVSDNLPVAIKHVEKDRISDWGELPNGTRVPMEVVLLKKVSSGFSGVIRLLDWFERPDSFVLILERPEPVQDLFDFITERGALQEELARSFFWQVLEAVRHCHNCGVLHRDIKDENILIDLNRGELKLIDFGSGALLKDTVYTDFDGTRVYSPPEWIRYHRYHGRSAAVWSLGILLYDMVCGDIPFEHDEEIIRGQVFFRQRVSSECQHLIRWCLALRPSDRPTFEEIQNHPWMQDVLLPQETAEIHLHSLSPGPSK
Sequence of HsGSK3β (P49841 whole entry): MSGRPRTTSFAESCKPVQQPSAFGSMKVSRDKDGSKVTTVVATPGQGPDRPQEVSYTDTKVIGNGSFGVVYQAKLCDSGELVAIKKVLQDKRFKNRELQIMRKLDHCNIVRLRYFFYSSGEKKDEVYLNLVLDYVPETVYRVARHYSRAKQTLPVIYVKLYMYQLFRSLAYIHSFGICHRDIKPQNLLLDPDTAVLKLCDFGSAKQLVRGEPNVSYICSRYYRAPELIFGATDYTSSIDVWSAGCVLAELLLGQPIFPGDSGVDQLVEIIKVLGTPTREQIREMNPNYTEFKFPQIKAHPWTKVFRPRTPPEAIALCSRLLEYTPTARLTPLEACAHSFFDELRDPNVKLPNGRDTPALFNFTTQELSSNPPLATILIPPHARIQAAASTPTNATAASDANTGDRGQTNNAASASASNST
Sequence of HsCdk5/p25 (Q00535 whole entry): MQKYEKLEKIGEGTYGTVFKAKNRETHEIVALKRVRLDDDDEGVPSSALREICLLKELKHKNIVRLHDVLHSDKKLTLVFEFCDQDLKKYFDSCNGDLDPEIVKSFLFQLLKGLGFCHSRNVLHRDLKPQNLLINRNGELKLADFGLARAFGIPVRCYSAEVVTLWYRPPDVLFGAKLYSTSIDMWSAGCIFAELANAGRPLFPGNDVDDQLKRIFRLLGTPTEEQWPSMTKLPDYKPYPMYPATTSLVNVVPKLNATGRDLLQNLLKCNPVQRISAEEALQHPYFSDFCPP
Sequence of HsCdk5/p25 (Q15078 99-307 partner limits assumed): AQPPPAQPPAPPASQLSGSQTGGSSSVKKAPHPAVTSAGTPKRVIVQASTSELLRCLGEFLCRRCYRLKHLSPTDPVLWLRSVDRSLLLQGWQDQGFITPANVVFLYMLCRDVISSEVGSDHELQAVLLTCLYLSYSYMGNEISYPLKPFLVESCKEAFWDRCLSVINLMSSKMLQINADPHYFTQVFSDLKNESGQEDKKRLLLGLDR

Row | SMILES | remaining activity [1] | remaining activity at 1 µM [2] | remaining activity at 1 µM [3] | remaining activity at 1 µM [4] | remaining activity at 1 µM [5] | remaining activity at 1 µM [6] | remaining activity at 1 µM [7] | remaining activity at 1 µM [8] | Selectivity index DYRK/Haspin [1] | pIC50 [1] | melting point | pIC50 [4] | Selectivity index CLK1/Haspin [8] | pIC50 [8]
1 | COc1ccc2c(c1)c1c3cc(C(F)(F)F)ccc3[nH]c(=O)c1n2C [Compound 63, 10-Methoxy-7-methyl-2-(trifluoromethyl)-5,7-dihydro-6H-Indolo[2,3-c]quinolin-6-one] | 29% | 44% | 45% | 51% | 42% | 67% | 68% | 19% | – | – | – | – | – | –
2 | COc1ccc2[nH]c(=O)c3[nH]c4ccc(F)cc4c3c2c1 [Compound 60, 10-Fluoro-2-methoxy-5,7-dihydro-6H-indolo[2,3-c]quinolin-6-one] | 44% | 100% | 100% | 9% | 100% | 97% | 100% | 31% | 8 | 6.84 | 135 to 136 °C | 7.72 | 6 | 6.91
3 | COc1ccc2c(c1)[nH]c1c(=O)[nH]c3ccccc3c12 [Compound 58, 9-Methoxy-5,7-dihydro-6H-indolo[2,3-c]quinolin-6-one] | 55% | 51% | 55% | 59% | 48% | 62% | 55% | 49% | – | – | 235 to 237 °C | – | – | –
4 | O=c1[nH]c2ccccc2c2c1[nH]c1ccccc12 [Compound 45, 5,7-Dihydro-6H-indolo[2,3-c]quinolin-6-one] | 61% | 100% | 63% | 44% | 86% | 100% | 100% | 67% | – | – | – | – | – | –
5 | COc1ccc2[nH]c3c(=O)[nH]c4ccc(C(F)(F)F)cc4c3c2c1 [Compound 53, 10-Methoxy-2-(trifluoromethyl)-5,7-dihydro-6H-indolo[2,3-c]quinolin-6-one] | 36% | 63% | 56% | 33% | 31% | 76% | 56% | 11% | – | – | 241 to 244 °C | – | – | –
6 | O=c1[nH]c2cc(O)ccc2c2c1[nH]c1ccccc12 [Compound 47, 3-Hydroxy-5,7-dihydro-6H-indolo[2,3-c]quinolin-6-one] | 33% | 47% | 20% | 28% | 37% | 61% | 59% | 22% | – | – | 238 to 240 °C (dec.) | – | – | –
7 | COc1ccc2c(c1)c1c3cc(N(C)C)ccc3[nH]c(=O)c1n2C [Compound 64, 2-(Dimethylamino)-10-methoxy-7-methyl-5,7-dihydro-6H-indolo[2,3-c]quinolin-6-one] | 19% | 81% | 59% | 39% | 82% | 100% | 100% | 11% | – | – | 231 to 234 °C | – | – | –
8 | COc1ccc2c(c1)c1c3cc(O)ccc3[nH]c(=O)c1n2C [Compound 62, 2-Hydroxy-10-methoxy-7-methyl-5,7-dihydro-6H-indolo[2,3-c]quinolin-6-one] | 2% | 31% | 6% | 0% | 75% | 31% | 22% | 0% | 7 | 6.88 | > 250 °C | 7.74 | 7 | 6.91
9 | COc1ccc2[nH]c3c(=O)[nH]c4ccc(NC(C)=O)cc4c3c2c1 [Compound 57, N-(10-Methoxy-6-oxo-6,7-dihydro-5H-indolo[2,3-c]quinolin-2-yl)acetamide] | 10% | 58% | 72% | 3% | 37% | 100% | 100% | 2% | 8 | 6.55 | 242 to 245 °C | 7.47 | 8 | 6.59
10 | COc1ccc2[nH]c3c(=O)[nH]c4cc(OC)c(OC)cc4c3c2c1 [Compound 52, 2,3,10-Trimethoxy-5,7-dihydro-6H-indolo[2,3-c]quinolin-6-one] | 5% | 22% | 37% | 2% | 29% | 58% | 63% | 1% | 15 | 6.62 | 205 to 208 °C | 7.80 | 5 | 7.11
11 | COc1ccc2c(c1)[nH]c1c(=O)[nH]c3ccc(OC)cc3c12 [Compound 59, 2,9-Dimethoxy-5,7-dihydro-6H-indolo[2,3-c]quinolin-6-one] | 21% | 41% | 41% | 13% | 34% | 74% | 51% | 12% | 2 | 7.14 | 235 to 237 °C | 7.52 | 3 | 7.03
